Our source for the Ki values is article doi:10.1101/2022.04.02.486831v1 (biorxiv, 2022).

This assay concerns the target T1, PsmtLPD1 (mtLPD1; PsL) (Lathyrus oleraceus, UniProt P31023).
T1 sequence (P31023 32-501): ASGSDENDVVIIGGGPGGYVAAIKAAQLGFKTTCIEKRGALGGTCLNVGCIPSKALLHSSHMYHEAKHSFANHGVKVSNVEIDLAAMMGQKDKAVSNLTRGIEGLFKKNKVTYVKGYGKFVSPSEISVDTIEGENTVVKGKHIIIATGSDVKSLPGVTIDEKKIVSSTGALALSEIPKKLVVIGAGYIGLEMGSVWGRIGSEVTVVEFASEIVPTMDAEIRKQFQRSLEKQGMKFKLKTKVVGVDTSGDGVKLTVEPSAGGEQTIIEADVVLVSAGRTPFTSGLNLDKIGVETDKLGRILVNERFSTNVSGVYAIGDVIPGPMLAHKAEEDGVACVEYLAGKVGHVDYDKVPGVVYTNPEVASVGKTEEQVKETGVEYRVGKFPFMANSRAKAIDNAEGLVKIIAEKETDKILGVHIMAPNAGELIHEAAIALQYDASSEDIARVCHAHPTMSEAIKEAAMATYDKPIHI
Briefly: spectrophotometric at […] nm, forward direction. Format: biochemical.

In general, Ki refers to the dissociation constant of the complex between target and ligand, obtained from inhibition or displacement. Low values mean a stronger hold on the target, high ones a looser hold on the target. As for `NC(=O)C1=CN([C@@H]2O[C@H](COP(=O)(O)OP(=O)(O)OC[C@H]3O[C@@H](n4cnc5c(N)ncnc54)[C@H](O)[C@@H]3O)[C@@H](O)[C@H]2O)C=CC1` [NADH], the Ki is roughly 66.1 µM.
